Some test systems named below: CCRF-CEM leukemia; CAKI-1 renal; DU-145 prostate; SK-OV-3 ovarian; OVCAR-3 ovarian; UO-31 renal; HOP-62 NSCLC; MOLT-4 leukemia; OVCAR-8 ovarian; PC-3 prostate; SN12C renal; SF-268 CNS; SK-MEL-5 melanoma; SK-MEL-2 melanoma; COLO 205 colon; HL-60(TB) leukemia; M14 melanoma; RPMI-8226 leukemia; A498 renal; HCC-2998 colon.
Holding throughout (assay): growth of human tumour cells (NCI), 48 h

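Following 48 hours of exposure in 96-well plates, responses at five concentrations were used to interpolate endpoints linearly. Definition used: TGI = concentration required for complete inhibition of growth.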 A value given as a limit tells only on which side of the number the result lay.

Consider `O=C1NC(=NC2CCCCC2)C2(CCN(CCCC3(c4ccc(F)cc4)OCCO3)CC2)N1c1ccccc1`, for which the TGI is over 100 µM in the experiment with CCRF-CEM leukemia; 50.3 µM with CAKI-1 renal; 33.8 µM in the experiment on DU-145 prostate; 42.7 µM in the experiment on SK-OV-3 ovarian; 25.6 µM with OVCAR-3 ovarian; 25.9 µM in the experiment with UO-31 renal. The TGI in the experiment on HOP-62 NSCLC was 31.8 µM; in the experiment with MOLT-4 leukemia it was 36.7 µM; with OVCAR-8 ovarian, 64.9 µM; in the experiment with PC-3 prostate it was 38.4 µM; in the experiment with SN12C renal it was 37.5 µM; in the experiment on SF-268 CNS, 42.2 µM. Further, the TGI in the experiment with SK-MEL-5 melanoma came to 28.2 µM; in the experiment on SK-MEL-2 melanoma, 30.2 µM; in the experiment with COLO 205 colon it was 38.4 µM; in the experiment with HL-60(TB) leukemia, 28.7 µM; with M14 melanoma it was 41.5 µM; in the experiment with RPMI-8226 leukemia, 64.5 µM.

Regarding `O=[N+]([O-])/C=C/COCc1cc2c(cc1Br)OCO2`, the TGI with CCRF-CEM leukemia is 11.5 µM; with CAKI-1 renal, 35.6 µM; in the experiment with DU-145 prostate, 35.5 µM; in the experiment on SK-OV-3 ovarian, over 100 µM; in the experiment on OVCAR-3 ovarian it was 30.3 µM; in the experiment on UO-31 renal, 32.3 µM. Also, the TGI is 41.9 µM in the experiment on HOP-62 NSCLC; over 100 µM in the experiment on MOLT-4 leukemia; over 100 µM with OVCAR-8 ovarian; 25.6 µM with PC-3 prostate; 35.7 µM with SN12C renal; 41.4 µM in the experiment with SF-268 CNS. In addition, the TGI with SK-MEL-5 melanoma was 37.1 µM; with COLO 205 colon, 43.6 µM; with A498 renal, 86.4 µM; in the experiment on M14 melanoma, 29.9 µM; in the experiment on RPMI-8226 leukemia, over 100 µM; with HCC-2998 colon, 34.2 µM.

With `CC(=O)OC[C@@H](OC(C)=O)[C@@H](OC(C)=O)[C@H]1OC[C@@H]2C[C@H]([C@H]1OC(C)=O)N(Cc1ccccc1)O2`, the TGI in the experiment with CCRF-CEM leukemia, with CAKI-1 renal, with DU-145 prostate, in the experiment with SK-OV-3 ovarian, in the experiment on OVCAR-3 ovarian and with UO-31 renal was over 100 µM each time. Besides, the TGI with HOP-62 NSCLC, with MOLT-4 leukemia, with PC-3 prostate, in the experiment with SN12C renal, in the experiment with SF-268 CNS and in the experiment on SK-MEL-5 melanoma was over 100 µM throughout. Further, the TGI in the experiment with SK-MEL-2 melanoma, in the experiment on COLO 205 colon, in the experiment with HL-60(TB) leukemia, in the experiment with M14 melanoma, with RPMI-8226 leukemia and with HCC-2998 colon was over 100 µM throughout.

On to `Cc1csc2nc3[nH]ncc3c(=O)n12`, for which the TGI with CCRF-CEM leukemia, in the experiment with CAKI-1 renal, with SK-OV-3 ovarian, with OVCAR-3 ovarian, in the experiment on UO-31 renal and with HOP-62 NSCLC was over 100 µM in each case. Further, the TGI with MOLT-4 leukemia, in the experiment on OVCAR-8 ovarian, with PC-3 prostate, in the experiment on SN12C renal, with SF-268 CNS and with SK-MEL-5 melanoma was over 100 µM in each case. Also, the TGI in the experiment with SK-MEL-2 melanoma, in the experiment with COLO 205 colon, with M14 melanoma, with RPMI-8226 leukemia and with HCC-2998 colon was over 100 µM each time.

On to `O=S1c2ccccc2SCSc2ccccc21`, for which the TGI in the experiment with CAKI-1 renal, in the experiment with DU-145 prostate, in the experiment with SK-OV-3 ovarian, in the experiment with OVCAR-3 ovarian, in the experiment with UO-31 renal and with HOP-62 NSCLC was over 100 µM throughout. Moreover, the TGI in the experiment with MOLT-4 leukemia, with OVCAR-8 ovarian, with PC-3 prostate, in the experiment with SN12C renal, with SF-268 CNS and with SK-MEL-5 melanoma was over 100 µM throughout. Besides, the TGI in the experiment on SK-MEL-2 melanoma was over 100 µM; in the experiment on COLO 205 colon, over 100 µM; with A498 renal it was over 100 µM; with M14 melanoma it was over 100 µM; with RPMI-8226 leukemia it was 70.1 µM; in the experiment with HCC-2998 colon, over 100 µM.

Regarding `COc1cc(-c2oc(C=Nc3ccccc3)c([N+](=O)[O-])c2-c2ccc(O)c(OC)c2)ccc1O`, the TGI was over 100 µM with CCRF-CEM leukemia; 47.2 µM in the experiment with CAKI-1 renal; 53.3 µM in the experiment on DU-145 prostate; over 64.7 µM with SK-OV-3 ovarian; over 100 µM in the experiment with OVCAR-3 ovarian; 29.6 µM in the experiment on UO-31 renal. In addition, the TGI with HOP-62 NSCLC was over 100 µM; in the experiment with MOLT-4 leukemia, over 84.7 µM; with OVCAR-8 ovarian it was over 54.9 µM; in the experiment on PC-3 prostate, over 64.5 µM; with SN12C renal, over 74.4 µM; in the experiment on SF-268 CNS, 73.7 µM. In addition, the TGI in the experiment with SK-MEL-5 melanoma is over 79.5 µM; in the experiment on SK-MEL-2 melanoma it was over 100 µM; in the experiment on COLO 205 colon it was over 63.2 µM; in the experiment on HL-60(TB) leukemia, 4.28 µM; in the experiment with M14 melanoma it was over 100 µM; in the experiment with RPMI-8226 leukemia, 72.4 µM. This compound returned a TGI in the experiment on HCC-2998 colon of 30.5 µM.

With `COc1cc(C2c3cc4c(cc3OC(NCc3ccccc3)C2C)OCO4)cc(OC)c1OC` (stereo not given), the TGI is 26.5 µM in the experiment with CCRF-CEM leukemia; 0.982 µM with CAKI-1 renal; over 100 µM in the experiment on DU-145 prostate; over 35.3 µM with SK-OV-3 ovarian; 3.1 µM in the experiment on OVCAR-3 ovarian; 26.4 µM in the experiment on UO-31 renal. In addition, the TGI in the experiment with HOP-62 NSCLC was over 64 µM; in the experiment on MOLT-4 leukemia it was 31.8 µM; in the experiment on OVCAR-8 ovarian, over 100 µM; with SN12C renal, over 52.1 µM; in the experiment on SF-268 CNS, over 36.8 µM; in the experiment on SK-MEL-5 melanoma, 1.78 µM. In addition, the TGI in the experiment with SK-MEL-2 melanoma is over 66.6 µM; with COLO 205 colon it was 0.726 µM; in the experiment with HL-60(TB) leukemia, 0.699 µM; in the experiment on A498 renal, over 100 µM; in the experiment with M14 melanoma, 67.1 µM; in the experiment on RPMI-8226 leukemia, 24.2 µM. In the experiment on HCC-2998 colon, this compound gave a TGI of 4 µM.

In the case of `CCN1C[C@]2(C)CC[C@H](OCc3ccccc3)C34C5C[C@@H]6CC[C@](O)(C(C[C@@H]32)C14)C5[C@H]6OCc1ccccc1` (stereo not given in full), the TGI with CCRF-CEM leukemia, in the experiment with DU-145 prostate, in the experiment with SK-OV-3 ovarian, in the experiment on OVCAR-3 ovarian, in the experiment with UO-31 renal and with HOP-62 NSCLC was over 100 µM in each case. The TGI in the experiment with MOLT-4 leukemia, in the experiment with OVCAR-8 ovarian, in the experiment on PC-3 prostate, in the experiment on SN12C renal, in the experiment with SF-268 CNS and in the experiment with SK-MEL-5 melanoma was over 100 µM in each case. The TGI with SK-MEL-2 melanoma, in the experiment on COLO 205 colon, in the experiment on A498 renal, with M14 melanoma, with RPMI-8226 leukemia and with HCC-2998 colon was over 100 µM each time.
